Measured values from US10695299B2, “Disulfiram formulation” (UNIVERSITY OF WOLVERHAMPTON, priority 2015, dated 2020).

Assays:
[1] = system: PLC/PRF/5 cells; assay: Clonogenic assay, PLC/PRF/5; format: cell-based; conditions: 6 h exposure, 10 days culture, 5-FU 200 μM, Sorafenib 20 μM, CuCl2 1 μM, disulfiram-PLGA 200 nM
Method: (§1) […] The cells were collected and sub-cultured in 6-well plates containing drug-free medium at a cell density of 10^3/well. After 10 days culture, the clonogenic cells were determined by counting the colonies containing at least 50 cells.
(§2) The treated cells were collected and sub-cultured in 6-well plates containing drug-free medium at a cell density of 500 cells/well for another 10 days.

[2] = system: Huh7 cells; assay: Clonogenic assay, Huh7; format: cell-based; conditions: 6 h exposure, 10 days culture, 5-FU 200 μM, Sorafenib 20 μM, CuCl2 1 μM, disulfiram-PLGA 200 nM
Method: as §1, §2

[3] = system: Huh7 HCC cell line; assay: MTT cytotoxicity assay and CI-isobologram, Huh7; format: cell-based; conditions: for IC50: Homo sapiens, Huh-7, Huh7, 72 h, single drug; for combinational effect with Disulfiram-PLGA (CI-isobologram): Huh7, Cu 1 μM; for sensitivity of cells at hypoxic condition: Huh7, hypoxic versus normoxic culture, 72 h
Method: (§3) The PLC/PRF/5 and Huh7 HCC cell lines were cultured in DMEM (Lonza, Wokingham, UK) supplemented with 10% FCS, 50 units/ml penicillin, 50 μg/ml streptomycin.
(§4) The IC50s from single and two-drug-treated cells were detected. […] The combination index (CI) was determined by mutually exclusive equations.

[4] = system: PLC/PRF/5 HCC cell line; assay: MTT cytotoxicity assay and CI-isobologram, PLC/PRF/5; format: cell-based; conditions: for IC50: Homo sapiens, PLC/PRF/5, 72 h, single drug; for combinational effect with Disulfiram-PLGA (CI-isobologram): PLC/PRF/5, Cu 1 μM; for sensitivity of cells at hypoxic condition: PLC/PRF/5, hypoxic versus normoxic culture, 72 h
Method: as §3, §4

[5] = system: PLC/PRF/5 xenografts; assay: Liver cancer xenograft experiments; format: in vivo, BALB/c Nu/Nu athymic nude mice; conditions: copper alone (CuGlu 6 mg/kg p.o.)
Method: PLC/PRF/5 cells (5×10^5) were subcutaneously injected at one front flank of the mice. When the tumor volume reached ˜200 mm^3, the tumor bearing mice were randomly subdivided into 6 groups (8 mice/group) e.g. control, CuGlu 6 mg/kg p.o., empty nanoparticles+CuGlu 6 mg/kg p.o., PLGA-disulfiram 2.5 mg/kg i.v.+CuGlu 6 mg/kg p.o., PLGA-disulfiram 5 mg/kg i.v.+CuGlu 6 mg/kg p.o., PLGA-disulfiram 10 mg/kg i.v.+CuGlu 6 mg/kg p.o. The drugs were administered 3 times/week for successive 3 weeks.
Five-week-old female BALB/c Nu/Nu athymic nude mice (Biotechology & Cell Biology Shanghai, China) were housed under pathogen-free conditions. PLC/PRF/5 cells (5×10^5) were subcutaneously injected at one front flank of the mice. When the tumour volume (V) reached ˜200 mm^3, the tumour bearing mice were randomly subdivided into 6 groups (8 mice/group) and treated 3 times/week e.g. control; copper gluconate (CuGlu) 6 mg/kg p.o., empty nanoparticles+CuGlu 6 mg/kg p.o., PLGA-disulfiram 2.5 mg/kg i.v.+CuGlu 6 mg/kg p.o.; PLGA-disulfiram 5 mg/kg i.v.+CuGlu 6 mg/kg p.o., PLGA-disulfiram 10 mg/kg i.v.+CuGlu 6 mg/kg p.o. The tumour volume was calculated by the following formula: V=(L×W^2)×0.5, where L is the length and W is the width of the tumour. The xenograft size was observed and recorded trice per week for 3 weeks. The animals were sacrificed after three weeks. […]

[6] = format: in vitro ADME; conditions: horse, 100 μg/ml
Method: The eppendoff tubes were collected and protein was precipitated by the addition of 300 μl of absolute methanol at different time intervals. The supernatant was then subjected to HPLC measurement.
The free disulfiram was rapidly degraded in the serum to undetectable levels within 30 seconds (FIG. 1E). In contrast, disulfiram commenced its release from PLGA nanoparticles at 2 min which was equivalent to 34.23±3.38% of the initial drug loading and peaked in 4 min at 51.27±5.98% of the initial drug loading. The controlled release lasted for at least 24 hours. […] Importantly, after 4 hours incubation, the disulfiram concentration in the serum still remained at ˜90 μM which is markedly higher than the IC50s of disulfiram in a wide range of cancer types (˜50-500 nM).

[7] = cited from earlier work
[8] = system: a wide range of cancer types; conditions: read-out: IC50s of disulfiram; cited from earlier work

Compound | colony numbers versus control [1] | colony numbers versus control [2] | IC50 [3] [µM] | combinational effect with Disulfiram-PLGA (CI-isobologram) [3] | sensitivity of cells at hypoxic condition [3] | IC50 [4] [µM] | combinational effect with Disulfiram-PLGA (CI-isobologram) [4] | sensitivity of cells at hypoxic condition [4] | effect on tumor growth [5] | time to degradation to undetectable levels in serum [6] [s] | previously published half-life data [7] [min] | IC50 [8] [µM]
[Cl][Cu][Cl] [CuCl2, copper(II) chloride] | no significant difference | no significant difference |  |  |  |  |  |  |  |  |  | 
O=c1[nH]cc(F)c(=O)[nH]1 [5-FU, 5-fluorouracil] | no significant difference | no significant difference | 103 | very significant synergistic | significantly resistant | 123 | very significant synergistic | significantly resistant |  |  |  | 
CNC(=O)c1cc(Oc2ccc(NC(=O)Nc3ccc(Cl)c(C(F)(F)F)c3)cc2)ccn1 [Sorafenib] | no significant difference | no significant difference | 22.9 | very significant synergistic | significantly resistant | 30.9 | very significant synergistic | significantly resistant |  |  |  | 
copper gluconate |  |  |  |  |  |  |  |  | no effect |  |  | 
CCN(CC)C(=S)SSC(=S)N(CC)CC [free disulfiram, Disulfiram] |  |  |  |  |  |  |  |  |  | ≤ 30 | 4 | 0.05 to 0.5
